Experiments:
CDK2 (Human) [1] = biological target: CDK2 (Human) (UniProt P24941); assay: Enzyme Assay
CDK2 (Human) [2] = biological target: CDK2 (Human) (UniProt P24941); assay: Enzyme Assay; remark: listed apart in the source

Structure (SMILES)	IC50 (CDK2 (Human) [1])	IC50 (CDK2 (Human) [2])
O=C1Nc2ccccc2C1=C1Nc2ccccc2C1=NOCCC(O)CO (stereo not drawn)	930 nM	–
O=C1NC(=O)c2c1c1c3ccccc3n3c1c1c2c2ccccc2n1C1CCC3O1	871 nM	283 nM
O=C1Nc2ccc3ncsc3c2/C1=C/c1cnc[nH]1	135 nM	94 nM
CC(C)[C@H](CO)Nc1nc(Nc2cccc(Cl)c2)c2ncn(C(C)C)c2n1	204 nM	503 nM
Cc1ccc([N+](=O)[O-])cc1S(=O)(=O)N(C)/N=C/c1cnc2ccc(Br)cn12	278 nM	168 nM
CC(C)c1[nH]n(-c2c(Cl)cccc2Cl)c2nc(Cc3ccc(OCCO)cc3)nc(=O)c1-2	141 nM	67 nM
CCCCCCCCCCCCCCCCn1cc[n+](Cc2ccccc2)c1C	24500 nM	3910 nM
CC(=O)O/N=C1/C(=C2/C(=O)Nc3cc(Br)ccc32)Nc2ccccc21	787 nM	78300 nM
CC(C)n1cnc2c(NCc3ccccc3O)nc(NCCCO)nc21	506 nM	1210 nM
O=C1Nc2ccc(I)cc2/C1=C1/Nc2ccccc2/C1=N\O	379 nM	1520 nM
CCN(CC)C(=O)c1ccc(Nc2nc(OCC3CCCCC3)c3[nH]cnc3n2)cc1	4490 nM	6470 nM
COc1cc(Nc2ncc3ccn(-c4cccc(CCC#N)c4)c3n2)cc(OC)c1OC	> 25000 nM	> 25000 nM
N#CCCc1ccc2c(c1)-c1[nH]c3ccc([N+](=O)[O-])cc3c1CC(=O)N2	333 nM	216 nM
Cn1cc(C2=C(c3cn(CCCSC(=N)N)c4ccccc34)C(=O)NC2=O)c2ccccc21	318 nM	147 nM
NC1=NC(=O)/C(=C2\CCNC(=O)c3[nH]c4ccccc4c32)N1	1280 nM	–
